Laboratory results taken from the supplement of paper PMC10307832.

Columns and labels:
Assay in all cases: relative viability (nuclei count vs DMSO), 5 days (fraction); higher = more cells survive
Pifithrin_alpha = compound: CC1=CC=C(C=C1)C(=O)CN2C3=C(CCCC3)SC2=N [Pifithrin_alpha]
In short: (§1)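 Following overnight incubation at 37 °C, lung cancer cell lines in 1536-well plates were pinned with five library-drug doses (not always all listed) in √10 steps on vehicle-anchored plates. The cells then spent 5 days without medium change before a combined fix, permeabilisation and Hoechst stain, 4× imaging and MetaXpress nuclear counts. Viability is the treated-to-vehicle ratio of nuclei, taken as the median across plates. Only plates with control CV below 25% and at least one doubling passed.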

Axitinib = compound: CNC(=O)c1ccccc1Sc1ccc2c(/C=C/c3ccccn3)n[nH]c2c1 [Axitinib]
In short: as §1

Bemcentinib = compound: Nc1nc(Nc2ccc3c(c2)CC[C@@H](N2CCCC2)CC3)nn1-c1cc2c(nn1)-c1ccccc1CCC2 [Bemcentinib]
In short: as §1

Axitinib + Crizotinib = compound: CNC(=O)c1ccccc1Sc1ccc2c(/C=C/c3ccccn3)n[nH]c2c1 [Axitinib] + C[C@@H](Oc1cc(-c2cnn(C3CCNCC3)c2)cnc1N)c1c(Cl)ccc(F)c1Cl [Crizotinib] (partner 1 µM)
In short: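 Values are medians from duplicate plates. Each reflects relative viability, defined as the nuclei count of treated wells over that of vehicle wells. Lung cancer cell lines in 1536-well plates were pin-tool dosed one day after seeding with one drug alone or with a fixed anchor-drug dose plus five library-drug doses (not always all listed) in √10 steps, then fixed, stained and imaged at 4× after 5 days.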

| Cell Line | relative viability (Pifithrin_alpha; 1 µM) | relative viability (Pifithrin_alpha; 3.162 µM) | relative viability (Pifithrin_alpha; 10 µM) | relative viability (Pifithrin_alpha; 31.62 µM) | relative viability (Pifithrin_alpha; 100 µM) | relative viability (Axitinib; 0.005 µM) | relative viability (Axitinib; 0.01581 µM) | relative viability (Axitinib; 0.05 µM) | relative viability (Axitinib; 0.1581 µM) | relative viability (Axitinib; 0.5 µM) | relative viability (Bemcentinib; 0.04 µM) | relative viability (Bemcentinib; 0.1265 µM) | relative viability (Bemcentinib; 0.4 µM) | relative viability (Bemcentinib; 1.265 µM) | relative viability (Bemcentinib; 4 µM) | relative viability (Axitinib + Crizotinib; first compound 0.005 µM) | relative viability (Axitinib + Crizotinib; first compound 0.01581 µM) | relative viability (Axitinib + Crizotinib; first compound 0.05 µM) | relative viability (Axitinib + Crizotinib; first compound 0.1581 µM) | relative viability (Axitinib + Crizotinib; first compound 0.5 µM) |
| --- | --- | --- | --- | --- | --- | --- | --- | --- | --- | --- | --- | --- | --- | --- | --- | --- | --- | --- | --- | --- |
| LOU-NH91 | 0.774 | 0.911 | 0.878 | 0.731 | 0.765 | 0.989 | 0.796 | 1.05 | 0.973 | 1 | 0.912 | 0.955 | 1 | 0.984 | 0.997 | 0.765 | 0.641 | 0.773 | 0.697 | 0.78 |
| LU99A | 0.941 | 0.89 | 0.903 |  | 0.869 | 0.903 | 1.02 | 1.03 | 0.883 | 0.904 | 0.903 | 1.02 | 0.98 | 1.02 | 1.02 | 0.552 | 0.541 | 0.628 | 0.525 | 0.648 |
| LXF-289 | 1.02 | 1.02 | 0.98 | 0.941 | 0.977 | 1.01 | 0.971 | 0.994 | 0.963 | 1.05 | 1.03 | 1.09 | 1.06 | 1.06 | 1.05 | 0.872 | 0.799 | 0.781 | 0.781 | 0.841 |
| NCI-H23 | 0.847 | 0.846 | 0.959 | 0.582 | 0.787 | 1.02 | 0.954 | 1.15 | 0.926 | 0.97 | 0.92 | 1.24 | 1.13 | 0.838 | 1.06 | 0.532 | 0.529 | 0.619 | 0.436 | 0.656 |
| NCI-H322M | 0.906 | 0.891 | 1.01 | 0.851 | 0.869 | 1.03 | 0.847 | 0.992 | 0.813 | 1.03 | 0.873 | 0.966 | 0.982 | 0.953 | 0.998 | 0.889 | 0.828 | 0.926 | 0.888 | 0.889 |
| NCI-H358 | 0.825 | 0.94 | 0.924 | 0.733 | 0.945 | 0.947 | 0.957 | 1.05 | 0.87 | 1.14 | 0.915 | 0.941 | 0.997 | 1.01 | 1.07 | 0.401 | 0.636 | 0.625 | 0.549 | 0.596 |
| NCI-H441 | 1.08 | 1.21 | 1.03 | 0.721 | 1.23 | 1.07 | 1.07 | 1.11 | 1.22 | 1.1 | 1.01 | 1.23 | 1.04 | 0.915 | 1.26 | 0.69 | 0.797 | 0.654 | 0.794 | 0.853 |
| NCI-H460 | 1.06 | 0.949 | 0.872 | 0.592 | 0.837 | 0.976 | 0.981 | 1.05 | 1.01 | 1.1 | 0.973 | 1.1 | 1.06 | 1.07 | 1.01 | 1.05 | 0.876 | 0.915 | 0.816 | 1.13 |
| NCI-H520 | 1.05 | 0.916 | 0.96 | 0.763 | 1.1 | 0.974 | 0.737 | 1.07 | 0.765 | 0.992 | 0.868 | 1.08 | 0.992 | 1.02 | 1.08 | 0.72 | 0.829 | 0.734 | 0.542 | 0.776 |
| NCI-H596 | 1.12 | 0.886 | 0.958 | 0.973 | 0.996 | 1.04 | 0.956 | 1.03 | 1.06 | 0.947 | 0.883 | 1.03 | 0.924 | 0.908 | 1.07 | 1.03 | 1.06 | 1.06 | 0.993 | 0.495 |
| NCI-H647 | 0.949 | 0.916 | 0.889 | 0.722 | 0.849 | 1.14 | 0.97 | 1.03 | 0.968 | 1.15 | 1.06 | 1.09 | 0.989 | 0.971 | 1.03 | 1.12 | 1.01 | 1.04 | 1.09 | 1.23 |
| NCI-H661 | 0.948 | 1.01 | 0.988 | 1.02 | 0.873 | 1.01 | 1.02 | 0.987 | 0.96 | 1.02 | 0.965 | 1.07 | 0.994 | 1.01 | 0.964 | 0.976 | 1.03 | 0.995 | 1.02 | 1.08 |
| NCI-H727 | 0.829 | 0.841 | 0.883 | 0.587 | 0.837 | 1.01 | 0.881 | 0.991 | 0.86 | 0.972 | 0.869 | 1.08 | 1.19 | 1.01 | 1.2 | 0.823 | 0.693 | 0.872 | 0.793 | 0.985 |
